Consider 20 molecules from patent US9289488B2, “Vaccine engineering” (AC Immune SA, priority 2010, dated 2016).

Like-named read-outs stand apart in the source and are kept apart here. K(Palm) = lysine with palmitoylated side chain (X = Palmitoyl); K(Ac) = lysine with acetylated side chain (X = Acetyl)

In series [1] the target is T1, β-sheet aggregates of liposomal Palm1-15 (ACI-24) (Homo sapiens, UniProt P05067).
T1 construct: purchased Bachem (Switzerland); host or cells: chemical synthesis
Kind of series: Disaggregation assay using ThT fluorescence on ACI-24. The class given is biochemical. To be noted: for decrease of ThT fluorescence upon addition of metal: near stoichiometric metal:peptide (20 μM : 15 μM), 2 h incubation; for ThT fluorescence after incubation with β-sheet breaker small molecule: ACI-24, 2 h incubation. Here is the method:
(§1) • CD spectra were acquired on a Jasco-815 spectropolarimeter (Japan) with a 0.1 cm path length quartz cuvette at 23° C. Measurements were made with a 1.0 nm bandwidth and 0.5 nm resolution. A scan speed of 50 nm/min was employed with response time of 1 s. Solvent control spectra (4 scans) were averaged and subtracted from the average of 8 scans of each sample spectra. All spectra ([θ]obs, degrees) were smoothed after being converted to mean residue molar ellipticity ([θ], degrees cm^2 dmol^−1) with the equation [θ]=[θ]obs×(MRW/10lc), where MRW is the mean residue molecular weight (MW/number of residues), l is the optical path length (cm) and c is the concentration (g/cm^3). […] Spectra of the corresponding empty liposomes lacking peptide were subtracted. A2 ThT Fluorescence. • Fluorescence emission spectra were measured at 25° C. on a Tecan M200 spectrofluorimeter with an excitation of 440 nm. […] Data were fitted using non-linear regression analysis (SigmaPlot v10.0) assuming single-site binding saturation in order to calculate apparent Kd and maximal binding Bmax. A3 Disaggregation Assay Using ThT Fluorescence. • ZnCl2, FeCl3 or CuCl2 (2 μL, 1 mM in H2O) were incubated with liposomes diluted 4-fold in PBS (48 μL) for 2 h at 22° C. PBS (48 μL) with or without DPTA (0.4 mM) was added accordingly after 5 min. ThT (2 μL, 2.4 mM in H2O) was then added and fluorescence measured after a further 5 min. For disaggregation with small molecules, Rosmarinic acid, Tannic acid or Methylene Blue (2 μL, 2.7 mM in PBS) were added to 86 μL of liposomes diluted 8-fold with PBS. After 2 h incubation at RT, ThT (2 μL, 2.4 mM in H2O) was added and after 10 min. fluorescence was measured at 490 nm (Ex. 440 nm). A4 MAS-NMR Spectroscopy. • Experiments were conducted using a 3.2 mm triple-resonance (^1H, ^13C, ^15N) MAS probe (Bruker Biospin, Germany) at a static magnetic field of 16.4 T corresponding to 700 MHz proton resonance frequency. […] Experiments were recorded using 10 kHz MAS and at effective sample temperature of about 4° C. After a cross polarization (CP) step employing a contact time of 600 μs, the SPC5 pulse sequence was used for generation of DQ coherence, with a ^13C radio frequency (r.f.) field strength of 50 kHz and DQ excitation and reconversion time totaling 2.28 ms. Acquisition involved in each case 110K repetitions. An ^1H field strength of 83.3 kHz was used during excitation and SPINAL64 proton decoupling. A5 SPR Analysis of Peptide-Liposome Interactions. • Experiments were performed at 25° C. using 0.2 μm filtered and degassed PBS as running buffer. An L1 sensor chip (GE Healthcare, Sweden) was docked into a BIAcore 1000 instrument and the chip surface conditioned by injection of 50 μL of Zwittergent at 30 μL/min. Liposomes lacking peptide (‘empty’ liposomes) were then immobilized onto the sensor chip following 2 successive injections of 50 μL at 2 μL/min. Finally 50 μL of 50 mM NaOH was injected over the surface at 30 μL/min in order to render the surface more unilamellar. […] 50 μL of acetylated peptides solubilized in PBS were then injected over the surface over a range of concentrations at a flow rate of 30 μL/min, followed by dissociation with PBS for 300 s. After analysis of the interaction of different peptides, a fresh lipid bilayer was immobilized. A6 Dynamic Light Scattering. • Liposome samples were diluted 100-fold with PBS. Analysis was performed using a Zetasizer Nano (Malvern, USA) at 25° C. Data was analyzed with DTS 5.0 (Malvern) software by signal intensity in order to calculate the average liposome diameter and polydispersity index (PDI). A7 Cryo-EM. • Liposome sample was diluted 6-fold with PBS and then 3 μL was applied on glow discharged R 2/4 holey carbon grids (Quantifoil®), blotted off, and plunged frozen into liquid ethane under temperature and humidity controlled conditions using the Vitribot™ (FEI, The Netherlands).

The conditions of series [2]: reported value; read-out: apparent Kd for the interaction of ThT with Aβ1-40; cited from earlier work.
Series [3] is described as follows: CD spectroscopy of peptide secondary structure. To be noted: PBS; palmitoylated peptides in liposomes, acetylated peptides alone. The class given is physicochemical. Here is the method: as §1
The nature of series [4]: ThT fluorescence binding to liposomal peptide constructs. As to conditions: for Kd: ThT binding, single site fit, read-out: App. Kd; for Kd / Bmax: liposomes DMPC/DMPG/cholesterol/MPLA 9:1:7:0.06, diluted 8-fold; for Bmax: ThT fluorescence at saturation; for Bmax (% rel. ACI-24): relative to ACI-24 (Palm1-15); for ThT fluorescence emission (in words): emission at 485 nm, excitation 440 nm, PBS. The method, then: as §1

One may read the EC50 as the concentration giving half of the maximal effect. As for `[Cl][Cu][Cl]` [Cu(II), CuCl2], in series [1] (ACI-24, ThT fluorescence, read-out: EC50 value for Cu(II) disaggregation), the 50% effective concentration (EC50) was about 3 µM. The “decrease of ThT fluorescence upon addition of metal” value (“decrease” for short) in series [1] was about 75%.
Turning to `[Cl][Fe]([Cl])[Cl]` [Fe(III), FeCl3], in series [1], the “decrease” value is given as “none”.
In the case of `CN(C)c1ccc2nc3ccc(=[N+](C)C)cc-3sc2c1` [Methylene Blue], the “ThT fluorescence after incubation with β-sheet breaker small molecule” value in series [1] is “most efficient disaggregation”.
Still for that read-out and setting: the result for `O=C(/C=C/c1ccc(O)c(O)c1)O[C@H](Cc1ccc(O)c(O)c1)C(=O)O` [Rosmarinic acid] reads “decrease of fluorescence”.
Still for that read-out and setting: for `O=C(OC[C@H]1O[C@@H](OC(=O)c2cc(O)c(O)c(OC(=O)c3cc(O)c(O)c(O)c3)c2)[C@H](OC(=O)c2cc(O)c(O)c(OC(=O)c3cc(O)c(O)c(O)c3)c2)[C@@H](OC(=O)c2cc(O)c(O)c(OC(=O)c3cc(O)c(O)c(O)c3)c2)[C@@H]1OC(=O)c1cc(O)c(O)c(OC(=O)c2cc(O)c(O)c(O)c2)c1)c1cc(O)c(O)c(OC(=O)c2cc(O)c(O)c(O)c2)c1` [Tannic acid] the value was “decrease of fluorescence”.
Take `[Cl-].[Cl-].[Zn+2]` [Zn(II), ZnCl2]: the “decrease” value in series [1] is reported as about 12%.
Consider Aβ1-40: β-amyloid peptide Aβ1-40, for which the Kd in series [2] is 11 µM.
“H-K(X)-K(X)-DAAFRHKSGYEVHHQ-K(X)-K(X)-OH ({K(Ac)-K(Ac)}-DAAFRHKSGYEVHHQ-{K(Ac)-K(Ac)-OH}) [Acetyl1-15(E3A, D7K), X = Acetyl]”: the “Secondary structure by CD spectroscopy” value in series [3] is recorded as “unstructured random coil conformations”.
Consider “H-K(X)-K(X)-DAAFRHKSGYEVHHQ-K(X)-K(X)-OH ({K(Palm)-K(Palm)}-DAAFRHKSGYEVHHQ-{K(Palm)-K(Palm)-OH}) [Palm1-15(E3A, D7K), X = Palmitoyl]”, for which, in series [4], the Kd is 14.7 µM, the Bmax was found to be 24854 and the “Bmax (% rel. ACI-24)” value turned out to be 68%.
As to “H-K(X)-K(X)-DAEFR-K(X)-K(X)-OH [Palm1-5, X = Palmitoyl]”, in series [4], the Kd came out at 0.7 µM, the Bmax is given as 12653, the “ThT fluorescence emission (in words)” value was “lower ThT fluorescence intensity” and the “Bmax (% rel. ACI-24)” value worked out at 35%. Further, the “Secondary structure by CD spectroscopy” value in series [3] is “mixed proportion of extended β-sheet and random coil conformations”.
For the molecule “H-K(X)-K(X)-DAEFRHKSGYEVHHQ-K(X)-K(X)-OH ({K(Ac)-K(Ac)}-DAEFRHKSGYEVHHQ-{K(Ac)-K(Ac)-OH}) [Acetyl1-15(D7K), X = Acetyl]”, in series [3], the “Secondary structure by CD spectroscopy” value is on record as “unstructured random coil conformations”.
“H-K(X)-K(X)-DAEFRHKSGYEVHHQ-K(X)-K(X)-OH ({K(Palm)-K(Palm)}-DAEFRHKSGYEVHHQ-{K(Palm)-K(Palm)-OH}) [Palm1-15(D7K), X = Palmitoyl]”: in series [4], the Kd was 8.8 µM, the Bmax amounted to 21197 and the “Bmax (% rel. ACI-24)” value was 58%.
“H-K(X)-K(X)-DAKFRHKSGYEVHHQ-K(X)-K(X)-OH ({K(Ac)-K(Ac)}-DAKFRHKSGYEVHHQ-{K(Ac)-K(Ac)-OH}) [Acetyl1-15(E3K, D7K), X = Acetyl]”: in series [3], the “Secondary structure by CD spectroscopy” value is “unstructured random coil conformations”.
Regarding “H-K(X)-K(X)-DAKFRHKSGYEVHHQ-K(X)-K(X)-OH ({K(Palm)-K(Palm)}-DAKFRHKSGYEVHHQ-{K(Palm)-K(Palm)-OH}) [Palm1-15(E3K, D7K), X = Palmitoyl]”, in series [4], the Kd was determined as 12.1 µM, the Bmax was 12567 and the “Bmax (% rel. ACI-24)” value stood at 35%.
As for “H-K(X)-K(X)-DAKFRHKSGYKVHHQ-K(X)-K(X)-OH ({K(Ac)-K(Ac)}-DAKFRHKSGYKVHHQ-{K(Ac)-K(Ac)-OH}) [Acetyl1-15(E3K, D7K, E11K), X = Acetyl]”, the “Secondary structure by CD spectroscopy” value in series [3] is recorded as “unstructured random coil conformations”.
Consider “H-K(X)-K(X)-DAKFRHKSGYKVHHQ-K(X)-K(X)-OH ({K(Palm)-K(Palm)}-DAKFRHKSGYKVHHQ-{K(Palm)-K(Palm)-OH}) [Palm1-15(E3K, D7K, E11K), X = Palmitoyl]”, for which, in series [4], the Kd turned out to be 10.1 µM, the Bmax is 24981 and the “Bmax (% rel. ACI-24)” value stood at 69%.
As to “H-K(X)-K(X)-GHEAYHSVERFDDQH-K(X)-K(X)-OH [scAcetyl15] ({K(Ac)-K(Ac)}-GHEAYHSVERFDDQH-{K(Ac)-K(Ac)-OH}) [X = Acetyl]”, the “ThT fluorescence emission (in words)” value in series [4] is recorded as “no fluorescence”. Also, in series [3], the “Secondary structure by CD spectroscopy” value is “unstructured random coil conformations”.
For “H-K(X)-K(X)-GHEAYHSVERFDDQH-K(X)-K(X)-OH [scPalm15] ({K(Palm)-K(Palm)}-GHEAYHSVERFDDQH-{K(Palm)-K(Palm)-OH}) [X = Palmitoyl]”, in series [4], the Kd was 7.9 µM, the Bmax was 13844 and the “Bmax (% rel. ACI-24)” value is listed as 38%. The “Secondary structure by CD spectroscopy” value in series [3] was “β-sheet conformation”.
Consider “H-K(X)-K(X)-QHHVEYGSDHRFEAD-K(X)-K(X)-OH [Acetyl15-1] ({K(Ac)-K(Ac)}-QHHVEYGSDHRFEAD-{K(Ac)-K(Ac)-OH}) [X = Acetyl]”, for which, in series [4], the “ThT fluorescence emission (in words)” value was “no fluorescence”. Moreover, in series [3], the “Secondary structure by CD spectroscopy” value was “unstructured random coil conformations”.
On to “H-K(X)-K(X)-QHHVEYGSDHRFEAD-K(X)-K(X)-OH [Palm15-1] ({K(Palm)-K(Palm)}-QHHVEYGSDHRFEAD-{K(Palm)-K(Palm)-OH}) [X = Palmitoyl]”, for which, in series [4], the Kd amounted to 7.8 µM, the Bmax came to 11023 and the “Bmax (% rel. ACI-24)” value is 30%. In series [3], the “Secondary structure by CD spectroscopy” value is reported as “β-sheet conformation”.
